Starred links: 1 amine or outer side, 2 acyl side, 3 side chain; linkers in the order of their positions; H or OH if unused. Non-standard residues stand in square brackets, D forms with d. Residues, ends and D or L forms follow the SMILES beside them. Groups on a side chain read outwards from the residue. *: point of attachment. C20 diacid = O=C(O)CCCCCCCCCCCCCCCCCCC(=O)*; αMePhe(2-F) = C[C@](N)(Cc1ccccc1F)C(=O)O; γGlu = O=C(O)[C@H](CCC(=O)[*:2])N[*:1]; αMeF = C[C@](N)(Cc1ccccc1)C(=O)O; αMeL = CC(C)C[C@](C)(N)C(=O)O; AEEA = NCCOCCOCC(=O)O; Ac3c = NC1(C(=O)O)CC1; Aib = CC(C)(N)C(=O)O
Tests used:
Human GCG R = molecular target: T1, Human GCG R (Homo sapiens, UniProt P47871); test: cAMP (HTRF) activity in HEK-293 cells stably overexpressing human GCG receptor; assay type: cell-based; details: EC50 of human GCG / EC50 of compound
T1 construct: expressed in transfected cells; host or cells: HEK-293
Experimental: (§1) By measuring the cAMP signal response levels of the aforementioned cells, the agonistic activity of individual compound towards the corresponding receptor was determined. The intracellular cAMP content was measured using reagent kit available from Cisbio Corp. based on HTRF (homogeneous time-resolved fluorescence) technology.
(§2) The cell fluid was transferred to 10 ml of HBSS for resuspension, and centrifuged at 1000 rpm for 5 minutes at room temperature.
(§3) 10 μL cell suspension was added to each well in the 384 well plate. […] Using the ECHO liquid transfer system, 100 nL of the prepared compound solution was added to the corresponding cell suspensions in the 384 well plate, rotated and shaken at 1000 rpm for 1 minute to mix evenly, and then incubated at room temperature for 60 minutes. 10 μL of detection reagent was added to each well after drug incubation was completed, and incubation was performed in the kit at room temperature for 60 minutes. […] GraphPad Prism 5 plotting software was used to create compound concentration response curves and EC50 (nM) values was calculated.

Human GLP-1R = Human GLP-1R (Homo sapiens, UniProt P43220); test: cAMP (HTRF) activity in HEK-293 cells stably overexpressing human GLP-1 receptor; assay type: cell-based; design: expressed in transfected cells; host or cells: HEK-293; details: for Human GLP-1R Rel. A (Relative Activity): EC50 of human GLP-1 (7-37) / EC50 of compound; for EC50: stable transfected cell cAMP activity, at least 3 independent tests
Experimental: as §1, §2, §3

RIN-m5F cells = assay type: cell-based, rat; details: for Rel. A (Relative Activity) on RIN-m5F: relative to GLP-1(7-37)
Experimental: This experiment measured the cAMP level produced by the compound on RIN-mF cells.
Frozen […] cells were placed in a 37° C. constant temperature water bath for rapid thawing and recovery. The cell solution was transferred to 10 ml of HBSS for resuspension, and centrifuged at 1000 rpm for 5 minutes at room temperature.
(§4) 10 μL cell suspension was added to each well in the 384 well plate. […] Using the ECHO liquid transfer system, 100 nL of the prepared compound solution was added to the corresponding cell suspensions in the 384 well plate, rotated and shaken at 1000 rpm for 1 minute to mix evenly, and then incubated at room temperature for 60 minutes. 10 μL of detection reagent was added to each wells after drug incubation was completed, and incubation was performed for 60 minutes.

Human GIP R = molecular target: T2, Human GIP R (Homo sapiens, UniProt P48546); test: cAMP (HTRF) activity in CHO cells stably overexpressing GIP receptor; assay type: cell-based; details: for Human GIP R Rel. A (Relative Activity): EC50 of human GIP / EC50 of compound
T2 construct: expressed in transfected cells; host or cells: CHO
T2 sequence (P48546 22-466): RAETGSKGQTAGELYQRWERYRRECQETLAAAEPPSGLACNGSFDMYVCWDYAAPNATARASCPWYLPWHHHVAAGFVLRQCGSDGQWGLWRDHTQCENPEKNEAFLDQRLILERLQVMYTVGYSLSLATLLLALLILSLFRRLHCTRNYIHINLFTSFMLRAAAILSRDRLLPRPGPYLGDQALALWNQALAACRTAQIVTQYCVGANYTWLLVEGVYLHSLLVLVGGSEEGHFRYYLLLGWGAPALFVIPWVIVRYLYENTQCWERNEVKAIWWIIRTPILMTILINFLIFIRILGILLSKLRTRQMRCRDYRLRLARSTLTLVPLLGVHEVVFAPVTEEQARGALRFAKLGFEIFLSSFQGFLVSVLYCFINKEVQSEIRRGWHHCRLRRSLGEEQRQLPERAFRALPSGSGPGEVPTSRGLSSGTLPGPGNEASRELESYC
Experimental: as §1, §2, §3

3T3-L1 adipocytes = details: for Rel. A (Relative Activity) on 3T3-L1 adipocyte: relative to GIP
Experimental: Mouse 3T3-L1 precursor adipocytes can be induced to differentiate into mature adipocytes. […] After the cells became full and contacted with each other, DMEM differentiation medium containing 20% FBS, 0.5 mM IBMX, 0.4 ug/mL dexamethasone, and 5 ug/mL insulin was used to induce differentiation of 3T3-L1 adipocyte. After 5 days of induction and cultivation, DMEM medium containing […], 4 ug/ml insulin, and 10 uM rosiglitazone was used to continue induction and cultivation for 3 days. Then, DMEM medium containing 10% FBS was used to continue cultivation for 2-3 days to induce mature 3T3-L1 adipocytes.
The cAMP level produced by the compound on 3T3-L1 adipocytes was determined in this experiment. The tested compound solution was diluted step by step according to a concentration gradient of 3 times, to obtain a total of 10 series of concentration solutions. The solutions were added to induced mature 3T3-L1 adipocytes and incubated at room temperature for 60 minutes. 10 μL detection reagent in the kit was added to each well after drug incubation, and incubated at room temperature for another 60 minutes. […] GraphPad Prism 5 plotting software was used to create compound concentration-effect curves and calculation was performed.

[1] = tested on: human primary liver cells; assay type: cell-based; details: for Rel. A (Relative Activity) on human primary liver cells: relative to GCG
Experimental: The cAMP levels produced by compounds on human primary liver cells were determined in this experiment. Human primary liver cells were purchased from Lonza (cell product number HUCPG).
Frozen human primary liver cells were placed in a 37° C. constant temperature water bath for rapid thawing and recovery. The cell solution was transferred to 10 ml of HBSS for resuspension, and centrifuged at 1000 rpm for 5 minutes at room temperature.
as §4, with “well” for “wells”

Human GLP-1R, sequence (P43220 24-463): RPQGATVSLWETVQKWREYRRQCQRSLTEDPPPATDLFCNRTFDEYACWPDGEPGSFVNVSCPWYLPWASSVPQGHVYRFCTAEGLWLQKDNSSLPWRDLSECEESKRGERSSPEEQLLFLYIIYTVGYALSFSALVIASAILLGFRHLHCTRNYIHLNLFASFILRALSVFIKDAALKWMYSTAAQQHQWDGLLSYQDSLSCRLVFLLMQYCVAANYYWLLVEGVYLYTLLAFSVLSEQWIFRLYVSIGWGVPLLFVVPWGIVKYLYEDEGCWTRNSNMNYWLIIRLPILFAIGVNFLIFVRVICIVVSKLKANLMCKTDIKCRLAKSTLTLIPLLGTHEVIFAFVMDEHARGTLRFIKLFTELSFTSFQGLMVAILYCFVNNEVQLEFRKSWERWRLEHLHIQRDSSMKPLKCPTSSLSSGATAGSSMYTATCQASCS
T1 sequence (P47871 26-477): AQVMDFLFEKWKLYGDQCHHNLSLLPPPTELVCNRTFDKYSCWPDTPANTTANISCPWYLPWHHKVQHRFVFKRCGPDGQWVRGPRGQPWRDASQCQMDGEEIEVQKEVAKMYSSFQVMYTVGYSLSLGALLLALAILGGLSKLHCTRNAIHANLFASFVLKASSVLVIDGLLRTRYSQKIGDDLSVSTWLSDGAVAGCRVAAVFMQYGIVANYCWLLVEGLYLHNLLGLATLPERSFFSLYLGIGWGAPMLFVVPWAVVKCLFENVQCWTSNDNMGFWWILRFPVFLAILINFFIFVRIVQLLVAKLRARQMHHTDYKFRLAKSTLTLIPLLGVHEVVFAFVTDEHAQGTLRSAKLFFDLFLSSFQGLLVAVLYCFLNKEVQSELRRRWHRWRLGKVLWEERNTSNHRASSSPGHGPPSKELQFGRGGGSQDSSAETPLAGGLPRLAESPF

Human GCG R Rel. A (Relative Activity) (Human GCG R) | Human GLP-1R Rel. A (Relative Activity) (Human GLP-1R) | EC50 (Human GLP-1R) | EC50 (RIN-m5F cells) | Human GIP R Rel. A (Relative Activity) (Human GIP R) | EC50 [1] | EC50 (Human GIP R; stable transfected cell cAMP activity, at least 3 independent tests) | Compound | Rel. A (Relative Activity) on RIN-m5F (RIN-m5F cells) | EC50 (3T3-L1 adipocytes) | Rel. A (Relative Activity) on 3T3-L1 adipocyte (3T3-L1 adipocytes) | Rel. A (Relative Activity) on human primary liver cells [1]
70.37% | 366.67% | 0.012 nM | 0.136 nM | 247.95% | 0.907 nM | – | CC[C@H](C)[C@H](NC(=O)[C@H](Cc1ccccc1)NC(=O)[C@H](C)NC(=O)C(C)(C)NC(=O)[C@H](CCC(N)=O)NC(=O)[C@H](C)NC(=O)[C@H](CCCCNC(=O)COCCOCCNC(=O)COCCOCCNC(=O)CC[C@H](NC(=O)CCCCCCCCCCCCCCCCCCC(=O)O)C(=O)O)NC(=O)[C@H](CCCCN)NC(=O)[C@H](CC(=O)O)NC(=O)[C@H](CC(C)C)NC(=O)[C@H](CC(C)C)NC(=O)[C@@H](NC(=O)[C@H](CO)NC(=O)[C@H](Cc1ccc(O)cc1)NC(=O)[C@H](CC(=O)O)NC(=O)[C@H](CO)NC(=O)[C@@H](NC(=O)[C@](C)(Cc1ccccc1F)NC(=O)[C@@H](NC(=O)CNC(=O)[C@H](CCC(N)=O)NC(=O)C(C)(C)NC(=O)[C@@H](N)Cc1ccc(O)cc1)[C@@H](C)O)[C@@H](C)O)[C@@H](C)CC)C(=O)N[C@@H](CCC(=O)O)C(=O)N[C@@H](Cc1ccccc1)C(=O)N[C@@H](CC(C)C)C(=O)N[C@@H](CC(C)C)C(=O)N[C@@H](CCC(=O)O)C(=O)N[C@@H](CO)C(=O)N[C@@H](Cc1c[nH]cn1)C(=O)N1CCC[C@H]1C(=O)N[C@@H](CO)C(=O)N[C@@H](CO)C(=O)NC(C)(C)C(=O)N[C@@H](Cc1c[nH]cn1)C(=O)N1CCC[C@H]1C(=O)N1CCC[C@H]1C(=O)NC1(C(=O)N[C@@H](CO)C(N)=O)CC1 [Compound 41] (H-Y[Aib]QGT[αMePhe(2-F)]TSDYSILLDKK([AEEA-AEEA-γGlu-C20 diacid])AQ[Aib]AFIEFLLESHPSS[Aib]HPP[Ac3c]S-NH2; N-terminus assumed) | 758.82% | 1.51 nM | 252.12% | 429.00%
82.61% | 275.00% | 0.016 nM | 0.633 nM | 58.58% | 2.93 nM | – | CC[C@H](C)[C@H](NC(=O)[C@H](Cc1ccccc1)NC(=O)[C@H](C)NC(=O)C(C)(C)NC(=O)[C@H](CCC(N)=O)NC(=O)[C@H](C)NC(=O)[C@H](CCCCNC(=O)COCCOCCNC(=O)COCCOCCNC(=O)CC[C@H](NC(=O)CCCCCCCCCCCCCCCCCCC(=O)O)C(=O)O)NC(=O)[C@H](CCCCN)NC(=O)[C@H](CC(=O)O)NC(=O)[C@H](CC(C)C)NC(=O)[C@H](Cc1ccccc1)NC(=O)[C@@H](NC(=O)[C@H](CO)NC(=O)[C@H](Cc1ccc(O)cc1)NC(=O)[C@H](CC(=O)O)NC(=O)[C@H](CO)NC(=O)[C@@H](NC(=O)[C@](C)(Cc1ccccc1)NC(=O)[C@@H](NC(=O)CNC(=O)[C@H](CCC(N)=O)NC(=O)C(C)(C)NC(=O)[C@@H](N)Cc1ccc(O)cc1)[C@@H](C)O)[C@@H](C)O)[C@@H](C)CC)C(=O)N[C@@H](CCC(=O)O)C(=O)N[C@@H](Cc1ccc(O)cc1)C(=O)N[C@@H](CC(C)C)C(=O)N[C@@H](CC(C)C)C(=O)N[C@@H](CCC(=O)O)C(=O)N[C@@H](CO)C(=O)NC(C)(C)C(=O)N1CCC[C@H]1C(=O)N[C@@H](CO)C(=O)N[C@@H](CO)C(=O)NCC(=O)N[C@@H](C)C(=O)N1CCC[C@H]1C(=O)N1CCC[C@H]1C(=O)NC1(C(=O)N[C@@H](CO)C(N)=O)CC1 [Compound 29] (H-Y[Aib]QGT[αMeF]TSDYSIFLDKK([AEEA-AEEA-γGlu-C20 diacid])AQ[Aib]AFIEYLLES[Aib]PSSGAPP[Ac3c]S-NH2; N-terminus assumed) | 163.03% | 20.7 nM | 18.41% | 132.89%
65.52% | 200.00% | 0.022 nM | 0.346 nM | 2262.50% | 1.96 nM | 0.008 nM | CC[C@H](C)[C@H](NC(=O)[C@H](Cc1ccccc1)NC(=O)[C@H](C)NC(=O)C(C)(C)NC(=O)[C@H](CCC(N)=O)NC(=O)[C@H](C)NC(=O)[C@H](CCCCNC(=O)COCCOCCNC(=O)COCCOCCNC(=O)CC[C@H](NC(=O)CCCCCCCCCCCCCCCCCCC(=O)O)C(=O)O)NC(=O)[C@H](CCCCN)NC(=O)[C@H](CC(=O)O)NC(=O)[C@H](CC(C)C)NC(=O)[C@](C)(CC(C)C)NC(=O)[C@@H](NC(=O)[C@H](CO)NC(=O)[C@H](Cc1ccc(O)cc1)NC(=O)[C@H](CC(=O)O)NC(=O)[C@H](CO)NC(=O)[C@@H](NC(=O)[C@](C)(Cc1ccccc1)NC(=O)[C@@H](NC(=O)CNC(=O)[C@H](CCC(N)=O)NC(=O)C(C)(C)NC(=O)[C@@H](N)Cc1ccc(O)cc1)[C@@H](C)O)[C@@H](C)O)[C@@H](C)CC)C(=O)N[C@@H](CCC(=O)O)C(=O)N[C@@H](Cc1ccc(O)cc1)C(=O)N[C@@H](CC(C)C)C(=O)N[C@@H](CC(C)C)C(=O)N[C@@H](CCC(=O)O)C(=O)N[C@H](C(=O)NCC(=O)N1CCC[C@H]1C(=O)N[C@@H](CO)C(=O)N[C@@H](CO)C(=O)NCC(=O)N[C@@H](CCC(N)=O)C(=O)N1CCC[C@H]1C(=O)N1CCC[C@H]1C(=O)NC1(C(=O)N[C@@H](CO)C(N)=O)CC1)[C@@H](C)O [Compound 35] (H-Y[Aib]QGT[αMeF]TSDYSI[αMeL]LDKK([AEEA-AEEA-γGlu-C20 diacid])AQ[Aib]AFIEYLLETGPSSGQPP[Ac3c]S-NH2; N-terminus assumed) | 298.27% | 6.01 nM | 63.28% | 198.52%
